Reference: ChEMBL document CHEMBL1201862, “PubChem BioAssay data set” (2004)
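Step 1: Grow cells in 96-well plates. Step 2: Expose to compound for 48 hours at 5 concentrations. Step 3: Interpolate endpoints linearly; if unreached, use highest concentration. GI50 is the concentration that inhibits growth by half.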 Activity calls are given as the source filed them. Rule as the data show it: active = GI50 up to about 1.1 µM and inactive = higher.

Assays:
Experiment in all cases: NCI anticancer screen, dose series, 48 h
[1] = tested on: PC-3
[2] = tested on: ACHN
[3] = tested on: SK-MEL-5
[4] = tested on: SNB-19
[5] = tested on: BT-549
[6] = tested on: SN12C
[7] = tested on: RPMI-8226
[8] = tested on: HOP-92
[9] = tested on: Malme-3M
[10] = tested on: SW-620
[11] = tested on: HL-60
[12] = tested on: CAKI-1
[13] = tested on: MDA-MB-231
[14] = tested on: LOX IMVI
[15] = tested on: NCI/ADR-RES
[16] = tested on: K562
[17] = tested on: SF-539
[18] = tested on: SK-MEL-2
[19] = tested on: Hs-578T
[20] = tested on: SF-268

Measured: GI50

O=C(NCCN1CCCC1)c1cn2c(ccc3sc4ccccc4c(=O)c32)n1
inactive: [1] 13.8 µM | [2] 5.13 µM | [3] 10.3 µM | [4] 13.7 µM | [5] 17.6 µM | [6] 10.9 µM | [7] 1.52 µM | [8] 15.2 µM | [9] 16 µM | [10] 1.51 µM | [11] 5.61 µM | [12] 11.4 µM | [13] 2.16 µM | [14] 1.46 µM | [15] 13.3 µM | [16] 1.5 µM | [17] 14.9 µM | [18] 19.2 µM | [19] 17 µM | [20] 12.4 µM

NS(=O)(=O)c1c(O)c2ccccc2oc1=O
inactive: [1] > 100 µM | [2] > 100 µM | [3] > 100 µM | [4] > 100 µM | [5] > 100 µM | [6] > 100 µM | [7] > 100 µM | [8] > 100 µM | [9] > 100 µM | [10] > 100 µM | [11] > 100 µM | [12] > 100 µM | [13] > 100 µM | [14] > 100 µM | [15] > 100 µM | [16] > 100 µM | [17] > 100 µM | [18] > 100 µM | [19] > 100 µM | [20] > 100 µM

O=C1/C(=C\c2cccc(Oc3ccccc3)c2)SC(c2ccccc2)N1c1ccc(Cl)cc1 (stereo not given)
inactive: [1] 63.2 µM | [2] 20.2 µM | [3] 4.79 µM | [4] 59.4 µM | [5] 28.2 µM | [6] 26.7 µM | [7] 5.78 µM | [8] 61.1 µM | [9] 45.6 µM | [10] 27.7 µM | [11] 10.1 µM | [12] > 60.3 µM | [13] > 64.6 µM | [14] 15.8 µM | [15] 21.4 µM | [16] 2.64 µM | [17] 21.3 µM | [18] > 47.5 µM | [19] > 67.9 µM | [20] 18.2 µM

COc1ccc(C[N+](C)(C)N)cc1OC
inactive: [1] > 10 µM | [2] > 10 µM | [3] > 10 µM | [4] > 10 µM | [5] > 10 µM | [6] > 10 µM | [7] > 10 µM | [8] > 10 µM | [9] > 10 µM | [10] > 10 µM | [11] > 10 µM | [12] > 10 µM | [13] > 10 µM | [14] > 10 µM | [15] > 10 µM | [16] 4.03 µM | [17] > 10 µM | [18] > 100 µM | [19] > 10 µM | [20] > 10 µM

CN1CCN(CCCCN2c3ccccc3Sc3ccc(N=[N+]=[N-])cc32)CC1
inactive: [1] 4.65 µM | [2] 8.65 µM | [3] 2.26 µM | [4] 13.4 µM | [5] 9.77 µM | [6] 12.2 µM | [7] 2.36 µM | [8] 2.75 µM | [9] 2.43 µM | [10] 2.68 µM | [11] 1.95 µM | [12] 7.29 µM | [13] 4.3 µM | [14] 2.47 µM | [15] 11.7 µM | [16] 1.89 µM | [17] 7.35 µM | [18] 3.99 µM | [19] 7.31 µM | [20] 9.71 µM

COC(=O)C[C@H](CCSC)NC(=O)C[C@H](CCSC)NC(=O)C[C@H](CCSC)NC(=O)OC(C)(C)C
inactive: [1] > 100 µM | [2] 36.9 µM | [3] 56.4 µM | [4] 20.7 µM | [5] 69.3 µM | [6] 32.8 µM | [7] > 100 µM | [8] 16.3 µM | [9] > 100 µM | [10] > 100 µM | [11] 1.44 µM | [12] > 100 µM | [13] 38.5 µM | [14] > 100 µM | [15] > 100 µM | [16] > 100 µM | [17] 17.5 µM | [18] 24.2 µM | [19] 30.3 µM | [20] 20.4 µM

COc1ccc(-c2c(C#N)c(-c3ccccc3)n(NS(=O)(=O)c3ccccc3)c(=O)c2C#N)cc1
inactive: [1] 59 µM | [2] > 100 µM | [3] 55.1 µM | [4] 92.7 µM | [5] > 100 µM | [6] > 100 µM | [7] 29.2 µM | [8] 26.2 µM | [9] 41.6 µM | [10] > 100 µM | [11] 60.3 µM | [12] > 100 µM | [13] > 100 µM | [14] 60.4 µM | [15] 53.3 µM | [16] 65.9 µM | [17] 90.6 µM | [18] 94.6 µM | [19] 41.6 µM | [20] 97.3 µM
